Test results from patent publication US10711036B2, “MALT1 inhibitors and uses thereof” (Cornell University, priority 2015, dated 2020).
pKi: −log10 of the molar value. Where a SMILES comes first, the peptide text is derived from it. [ ]: non-standard residue; d: D form. The star is where a group is joined. NMeV = CN[C@H](C(=O)O)C(C)C; Cbz = O=C(OCc1ccccc1)*; CH2F = FC*

Tests used:
OCI-LY1 = experiment: Maximum killing effect on OCI-LY1; assay type: cell-based
Procedure: (§1) The maximum killing effects on cell-lines OCI-LY3, TMD8, and OCI-LY1 were also measured for select compounds at inhibitor concentration of 20 μM and 5 μM. TMD8 is another line of ABC type diffuse large-B cell lymphoma, while OCI-LY1 is a DLBCL line of the germinal center B-cell subtype.

OCI-LY3 [1] = experiment: Cell growth inhibition assay (CellTiter-Glo, 96 hours), OCI-LY3; assay type: cell-based, human; settings: Homo sapiens, OCI-LY3 cells, treated at t=0 and t=48 hours, ATP luminescence
Procedure: DLBCL cell lines were grown in exponential growth conditions during the 96 hours of treatment. Cells were treated twice: at t=0 and t=48 hours, and cell viability was determined by ATP quantification using a luminescent method ([…]-GLO, Promega, Madison, Wis.). Cell viability in drug-treated cells was normalized to vehicle controls (fractional viability) and results are given as 1-fractional viability.
Experiments were Performed in Triplicate.

TMD8 = experiment: Maximum killing effect on TMD8; assay type: cell-based
Procedure: as §1

OCI-LY3 [2] = experiment: Maximum killing effect on OCI-LY3; assay type: cell-based, human
Procedure: as §1

MALT1 [3] = target: T1, MALT1 (Homo sapiens (Human), UniProt Q9UDY8); experiment: Inhibition constants (Ki) for inhibition of MALT1; assay type: biochemical; settings: 100 nM MALT1 used for the assay
Procedure: For exemplary compounds of the disclosure, Ki for inhibition of MALT1 was measured (Table E11). A concentration of 100 nM MALT1 was used for the assay.

MALT1 [4] = target: T1, MALT1; experiment: X-ray co-crystal structure of compound and MALT1; assay type: binding; settings: 2.0 angstrom resolution
Procedure: Compound 101 was incubated with MALT1 to form a complex, and the complex was purified and crystallized for structure determination. X-ray diffraction data was collected, and the compound 101-MALT1 structure was solved in 2.0 angstrom resolution. […] Exemplary evidence for the formation of the covalent bond is the existence of continuous electron density from compound 101 to the Cys464 residue of MALT1. The electron density is 2Fo−Fc map contoured at 1.0 sigma.

RelB cleavage = experiment: Western blot for RelB cleavage in OCI-LY3 cells; assay type: cell-based, human; settings: OCI-LY3 cells pretreated with inhibitor, then 5 μM MG-132 for 2 hours
Procedure: FIG. 1A. Western blots for RelB and MALT1 after 30 minutes pretreatment with indicated doses of compounds or vehicle, followed by proteasome inhibitor MG-132 (5 μM) treatment for 2 hours in OCI-LY3. clev=cleavage product of RelB.
FIG. 1B. Western blots for RelB with indicated doses of compounds or vehicle in OCI-LY3.
Western blot: OCI-Ly3 cells (a line of human diffuse large B-cell lymphoma (ABC type)) were pre-treated for 30 minutes with indicated doses of MALT1 inhibitors followed by a 2-hour treatment with proteasome inhibitor MG-132 at 5 μM. Protein was then extracted in a PBS-based lysis buffer containing 1% NP-40. Equal amounts of total protein (50 to 75 μg) were separated on sodium dodecyl sulfate-polyacrylamide gel electrophoresis (SDS-PAGE), and electrotransferred onto nitrocellulose membranes. Membranes were incubated with primary antibodies (MALT1, from Santa Cruz Biotechnologies, Santa Cruz, Calif.; RELB from Cell Signaling, Danvers, Mass., and α-Tubulin from Sigma), followed by secondary antibodies conjugated to horseradish peroxidase, which were detected by chemiluminescence (Pierce, Thermo Scientific, Rockford, Ill.).
OCI-LY3 cells were pretreated with the an inhibitor at the desired concentration and subsequently treated with 5 μM MG-132, a proteasome inhibitor, for 2 hours.

T1 sequence (Q9UDY8 whole entry): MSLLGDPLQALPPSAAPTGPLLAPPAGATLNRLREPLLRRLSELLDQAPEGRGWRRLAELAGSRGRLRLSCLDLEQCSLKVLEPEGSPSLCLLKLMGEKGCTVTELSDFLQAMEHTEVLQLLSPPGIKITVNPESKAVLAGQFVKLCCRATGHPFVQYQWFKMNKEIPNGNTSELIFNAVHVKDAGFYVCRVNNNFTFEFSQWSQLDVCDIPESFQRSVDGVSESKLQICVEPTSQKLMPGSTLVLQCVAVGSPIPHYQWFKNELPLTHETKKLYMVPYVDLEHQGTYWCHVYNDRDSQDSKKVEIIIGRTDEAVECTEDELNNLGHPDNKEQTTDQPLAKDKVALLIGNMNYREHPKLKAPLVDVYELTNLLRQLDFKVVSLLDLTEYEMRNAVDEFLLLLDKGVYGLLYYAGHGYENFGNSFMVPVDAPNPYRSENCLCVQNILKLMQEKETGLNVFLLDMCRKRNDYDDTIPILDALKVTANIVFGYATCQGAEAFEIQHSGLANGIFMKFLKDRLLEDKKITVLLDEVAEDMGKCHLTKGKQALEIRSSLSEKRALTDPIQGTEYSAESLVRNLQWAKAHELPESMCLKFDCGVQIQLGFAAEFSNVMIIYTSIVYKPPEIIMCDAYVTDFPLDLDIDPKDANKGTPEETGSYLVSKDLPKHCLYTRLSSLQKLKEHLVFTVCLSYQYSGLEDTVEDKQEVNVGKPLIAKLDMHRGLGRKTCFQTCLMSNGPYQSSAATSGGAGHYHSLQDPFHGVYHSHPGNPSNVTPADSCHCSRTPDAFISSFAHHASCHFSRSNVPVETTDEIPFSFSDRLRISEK

SMILES: CC(C)[C@H](NC(=O)OCc1ccccc1)C(=O)N1CCC[C@H]1C(=O)N[C@@H](CCCNC(=N)N)C(=O)CF [Compound 101, Benzyl ((S)-1-((S)-2-(((S)-1-fluoro-6-guanidino-2-oxohexan-3-yl)carbamoyl)pyrrolidin-1-yl)-3-methyl-1-oxobutan-2-yl)carbamate 2,2,2-trifluoroacetate] (Cbz-Val-Pro-Arg-CH2F)
- Maximum killing effect (OCI-LY1; OCI-LY1, 5 μM): <0%
- Maximum killing effect (OCI-LY1; OCI-LY1, 20 μM): 7%
- GI50 (OCI-LY3 [1]): 8520 nM
- Maximum killing effect (TMD8; TMD8, 5 μM): 50%
- Maximum killing effect (TMD8; TMD8, 20 μM): 63%
- Maximum killing effect (OCI-LY3 [2]; OCI-LY3, 5 μM): 70%
- Maximum killing effect (OCI-LY3 [2]; OCI-LY3, 20 μM): 79%
- pKi (MALT1 [3]): 7.40
- Covalent bond to Cys464 of MALT1 in co-crystal structure (MALT1 [4]): formation of a covalent bond

SMILES: CC(C)[C@@H](C(=O)N1CCC[C@H]1C(=O)N[C@@H](CCCNC(=N)N)C(=O)CF)N(C)C(=O)OCc1ccccc1 [Compound 112] (Cbz-[NMeV]-Pro-Arg-CH2F)
- Maximum killing effect (OCI-LY1; OCI-LY1, 5 μM): 5%
- Maximum killing effect (OCI-LY1; OCI-LY1, 20 μM): 2%
- GI50 (OCI-LY3 [1]): > 20000 nM
- Inhibition of RelB cleavage (Western blot) (RelB cleavage): inhibition of RelB cleavage
- Maximum killing effect (TMD8; TMD8, 20 μM): 66%
- Maximum killing effect (OCI-LY3 [2]; OCI-LY3, 5 μM): 28%
- Maximum killing effect (OCI-LY3 [2]; OCI-LY3, 20 μM): 51%
- pKi (MALT1 [3]): 6.09

SMILES: CC(C)[C@H](NC(=O)c1ccc(Br)cc1)C(=O)N1CCC[C@H]1C(=O)N[C@@H](CCCNC(=N)N)C(=O)CF [Compound 116]
- Maximum killing effect (OCI-LY1; OCI-LY1, 20 μM): 19%
- GI50 (OCI-LY3 [1]): 130 nM
- Inhibition of RelB cleavage (Western blot) (RelB cleavage): inhibition of RelB cleavage
- Maximum killing effect (TMD8; TMD8, 20 μM): 76%
- Maximum killing effect (OCI-LY3 [2]; OCI-LY3, 20 μM): 90%
- pKi (MALT1 [3]): 8.00
